From article PMC10952572, “Improved PIEZO1 agonism through 4‐benzoic acid modification of Yoda1” (British Journal of Pharmacology, 2023)

Assays:
mPIEZO1 = biological target: T1, mPIEZO1 (Mus musculus, UniProt E2JF22); test: Manual whole-cell patch clamp on mPIEZO1-TREx cells; type: cell-based; conditions: 10 μM, ramp −100 to +100 mV
T1 construct: expressed in transfected cells
Experimental: (§1) For manual patch clamp, macroscopic transmembrane ionic currents of mPIEZO1 HEK‐TREx cells (or control HEK‐TREx cells) were recorded using the standard whole‐cell configuration for patch clamp in voltage‐clamp mode. For studies of HEK 293 cells overexpressing PIEZO2 (or control HEK 293 cells), the outside‐out patch configuration was used in voltage‐clamp mode. All recordings were made using an Axopatch 200B amplifier (Axon Instruments, Inc., USA) equipped with Digidata 1550B hosted by a PC running pClamp 10.7 software (Molecular Devices, USA) at room temperature. The cells were maintained during the experiment in an external salt buffer solution (SBS) of the following composition: 135 mM NaCl, 5 mM KCl, 1.5 mM CaCl2, 1.2 mM MgCl2, 8 mM D‐glucose and 10 mM HEPES (titrated to pH 7.4 with NaOH). […] For outside‐out experiments, Na2ATP and Na2GTP were omitted. For whole‐cell experiments, cells were held at 0 mV and current amplitude was monitored by application of ramp voltage protocol from −100 to +100 mV at 10 s intervals. Currents were measured at −100 and +100 mV. Test compounds were applied in the external solution using a bath perfusion system. SBS flow was applied to the cells for 1 min before the addition of compounds. […] Data were analysed and plotted using pClamp 10.7 and Microcal Origin 2018 (Microcal Software, USA).

[1] = tested on: HEK‐TREx control (null) cells; test: Manual whole-cell patch clamp on control cells; type: cell-based, human; conditions: 10 μM, HEK-TREx cells without PIEZO1 transfection
Experimental: as §1

[2] = biological target: T2, human adenosine A2A receptors (Homo sapiens, UniProt P29274); test: Eurofins Hit Profiling Screen PP70: adenosine A2A receptor binding; conditions: 5 μM
T2 construct: host or cells: HEK 293 membranes
Experimental: (§2) These experiments were performed by Eurofins Scientific, and the methods below are from this company's information. Membrane protein/membrane amounts may have varied, and the concentrations used were adjusted as necessary. KC289 was tested at 5 μM.
This assay measured binding of [^3H]CGS‐21680 to human adenosine A2A receptors. HEK 293 cells stably transfected with a plasmid encoding the human adenosine A2A receptor were used to prepare membranes in modified Tris–HCl pH 7.4 buffer using standard techniques. A 15 μg aliquot of membrane was incubated with […] [^3H]CGS‐21680 for 90 min at 25°C. Non‐specific binding was estimated in the presence of 50 μM NECA. Membranes were filtered and washed three times, and the filters were counted to determine [^3H]CGS‐21680 specifically bound.

[3] = tested on: 30 proteins including ion channels and receptors; test: Eurofins Hit Profiling Screen PP70: remaining targets; type: binding; conditions: 5 μM; targets other than A2A and EP4
Experimental: as §2

[4] = biological target: T3, Human recombinant prostanoid EP4 receptors (Homo sapiens, UniProt P35408); test: Eurofins Hit Profiling Screen PP70: prostanoid EP4 receptor binding; conditions: 5 μM
T3 construct: host or cells: Chem-1 cells
Experimental: as §2
Human recombinant prostanoid EP4 receptors expressed in Chem‐1 cells were used in modified MES buffer pH 6.0. A 3 μg·ml^−1 (see footnote 1) aliquot was incubated with 1 nM [^3H]PGE2 for 120 min at 25°C. Non‐specific binding was estimated in the presence of 10 μM PGE2 . Receptors were filtered and washed, and the filters were then counted to determine [^3H]PGE2 specifically bound.

T2 sequence (P29274 whole entry): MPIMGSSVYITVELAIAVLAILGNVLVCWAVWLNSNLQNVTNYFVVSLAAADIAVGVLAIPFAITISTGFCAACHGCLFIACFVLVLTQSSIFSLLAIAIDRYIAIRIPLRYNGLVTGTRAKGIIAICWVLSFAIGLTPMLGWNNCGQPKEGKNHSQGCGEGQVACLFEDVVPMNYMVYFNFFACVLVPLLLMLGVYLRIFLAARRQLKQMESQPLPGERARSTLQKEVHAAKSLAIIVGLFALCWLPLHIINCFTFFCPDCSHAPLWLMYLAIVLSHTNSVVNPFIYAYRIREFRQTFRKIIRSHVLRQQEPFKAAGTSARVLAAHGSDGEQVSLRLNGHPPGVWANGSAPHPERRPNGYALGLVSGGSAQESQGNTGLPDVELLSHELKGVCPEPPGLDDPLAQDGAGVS
T1 sequence (E2JF22 whole entry): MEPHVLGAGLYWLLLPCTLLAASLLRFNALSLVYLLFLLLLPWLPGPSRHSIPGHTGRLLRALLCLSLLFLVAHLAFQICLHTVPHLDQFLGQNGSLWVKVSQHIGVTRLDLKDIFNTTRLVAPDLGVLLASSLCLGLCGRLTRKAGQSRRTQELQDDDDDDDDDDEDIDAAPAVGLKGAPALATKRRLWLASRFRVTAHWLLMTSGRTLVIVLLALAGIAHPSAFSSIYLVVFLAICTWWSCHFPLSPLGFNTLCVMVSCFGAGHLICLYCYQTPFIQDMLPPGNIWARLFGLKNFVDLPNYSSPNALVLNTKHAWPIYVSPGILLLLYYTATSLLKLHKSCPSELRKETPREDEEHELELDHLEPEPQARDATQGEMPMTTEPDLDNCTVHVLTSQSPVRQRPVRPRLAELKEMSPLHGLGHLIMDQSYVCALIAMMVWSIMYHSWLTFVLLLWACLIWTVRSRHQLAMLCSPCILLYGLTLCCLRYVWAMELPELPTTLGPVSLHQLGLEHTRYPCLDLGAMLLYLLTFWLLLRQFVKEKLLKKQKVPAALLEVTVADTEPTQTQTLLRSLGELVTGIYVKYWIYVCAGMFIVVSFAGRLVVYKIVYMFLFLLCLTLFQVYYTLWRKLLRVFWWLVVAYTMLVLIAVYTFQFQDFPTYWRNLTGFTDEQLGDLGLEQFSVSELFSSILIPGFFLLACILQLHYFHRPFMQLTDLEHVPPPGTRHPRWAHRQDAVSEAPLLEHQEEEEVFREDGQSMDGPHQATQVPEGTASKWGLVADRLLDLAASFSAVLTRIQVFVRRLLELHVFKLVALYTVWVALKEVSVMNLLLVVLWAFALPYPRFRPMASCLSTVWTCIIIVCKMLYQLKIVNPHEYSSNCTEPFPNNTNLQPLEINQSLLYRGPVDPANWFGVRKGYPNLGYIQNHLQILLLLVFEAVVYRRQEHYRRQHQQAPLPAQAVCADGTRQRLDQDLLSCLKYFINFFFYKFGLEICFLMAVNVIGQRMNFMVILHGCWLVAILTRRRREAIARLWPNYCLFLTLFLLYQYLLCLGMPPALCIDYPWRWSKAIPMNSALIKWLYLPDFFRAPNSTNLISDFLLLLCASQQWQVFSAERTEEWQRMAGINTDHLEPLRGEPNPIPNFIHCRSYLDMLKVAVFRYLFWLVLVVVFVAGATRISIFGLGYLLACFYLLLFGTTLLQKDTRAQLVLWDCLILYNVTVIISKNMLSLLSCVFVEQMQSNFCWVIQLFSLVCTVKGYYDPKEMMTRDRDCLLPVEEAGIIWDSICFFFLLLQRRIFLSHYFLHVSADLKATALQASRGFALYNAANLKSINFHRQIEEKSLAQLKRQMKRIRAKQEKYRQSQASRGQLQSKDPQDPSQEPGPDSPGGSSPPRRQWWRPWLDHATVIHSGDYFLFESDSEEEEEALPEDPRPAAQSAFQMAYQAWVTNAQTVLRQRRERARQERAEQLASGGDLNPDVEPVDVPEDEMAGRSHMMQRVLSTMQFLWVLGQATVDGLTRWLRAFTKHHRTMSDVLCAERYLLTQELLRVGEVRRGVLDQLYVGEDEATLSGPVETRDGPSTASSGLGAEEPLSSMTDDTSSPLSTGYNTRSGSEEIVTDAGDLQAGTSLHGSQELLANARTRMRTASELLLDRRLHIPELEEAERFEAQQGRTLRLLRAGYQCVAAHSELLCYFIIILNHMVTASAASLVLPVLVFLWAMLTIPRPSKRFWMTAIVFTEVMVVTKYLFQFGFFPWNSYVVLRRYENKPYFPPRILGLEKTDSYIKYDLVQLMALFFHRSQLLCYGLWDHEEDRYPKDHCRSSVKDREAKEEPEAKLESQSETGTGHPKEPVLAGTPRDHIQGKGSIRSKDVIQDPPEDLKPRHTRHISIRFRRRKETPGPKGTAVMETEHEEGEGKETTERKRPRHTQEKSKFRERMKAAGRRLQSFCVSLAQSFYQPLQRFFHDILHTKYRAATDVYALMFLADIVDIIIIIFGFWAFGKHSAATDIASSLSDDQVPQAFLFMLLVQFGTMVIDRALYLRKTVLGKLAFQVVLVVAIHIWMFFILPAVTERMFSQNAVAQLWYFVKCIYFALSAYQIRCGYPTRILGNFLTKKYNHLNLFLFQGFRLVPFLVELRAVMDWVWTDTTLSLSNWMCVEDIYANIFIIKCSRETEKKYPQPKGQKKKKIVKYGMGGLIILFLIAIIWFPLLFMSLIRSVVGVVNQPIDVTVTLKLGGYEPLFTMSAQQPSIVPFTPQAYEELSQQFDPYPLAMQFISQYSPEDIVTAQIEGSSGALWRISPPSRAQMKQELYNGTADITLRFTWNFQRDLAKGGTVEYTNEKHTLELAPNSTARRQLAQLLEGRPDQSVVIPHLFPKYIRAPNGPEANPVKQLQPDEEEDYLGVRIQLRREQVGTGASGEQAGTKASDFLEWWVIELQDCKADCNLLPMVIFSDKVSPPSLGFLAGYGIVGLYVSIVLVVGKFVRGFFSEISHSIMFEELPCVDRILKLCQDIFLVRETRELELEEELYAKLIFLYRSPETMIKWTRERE
T3 sequence (P35408 whole entry): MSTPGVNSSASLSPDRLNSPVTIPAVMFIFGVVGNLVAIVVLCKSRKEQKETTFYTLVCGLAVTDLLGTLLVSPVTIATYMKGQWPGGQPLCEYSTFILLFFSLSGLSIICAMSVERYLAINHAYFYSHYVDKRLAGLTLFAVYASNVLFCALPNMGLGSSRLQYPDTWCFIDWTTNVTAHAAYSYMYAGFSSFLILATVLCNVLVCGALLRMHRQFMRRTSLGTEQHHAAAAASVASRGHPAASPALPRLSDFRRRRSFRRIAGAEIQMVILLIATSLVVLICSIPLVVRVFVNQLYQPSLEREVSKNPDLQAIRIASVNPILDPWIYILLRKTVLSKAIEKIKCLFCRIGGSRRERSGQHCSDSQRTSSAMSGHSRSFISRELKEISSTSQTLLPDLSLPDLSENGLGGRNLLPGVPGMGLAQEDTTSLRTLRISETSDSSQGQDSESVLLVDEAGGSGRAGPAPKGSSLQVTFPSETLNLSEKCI

Structure (SMILES) | Whole-cell current (mPIEZO1) | Whole-cell current in null cells [1] | Binding to adenosine A2A receptors [2] | Binding to the other proteins of the screen [3] | Binding to prostanoid EP4 receptors [4]
O=C(O)c1ccc(-c2nnc(SCc3c(Cl)cccc3Cl)s2)cc1 [KC159] | increases current | not null cells |  |  | 
O=C([O-])c1ccc(-c2nnc(SCc3c(Cl)cccc3Cl)s2)cc1.[K+] [KC289] |  |  | modest interaction | little or no binding | modest interaction
